Assay results taken from patent US5235045A, “Non-azo naphthalimide dyes” (priority 1992, dated 1993).

Legend:
[1] = test system: Human immunodeficiency virus (HIV); assay: Effect of DiEd6Br and light on HIV (MTT viability of MT-4 cells); format: cell-based; settings: for Optical Density (MTT, MT-4 cells): mean of triplicate, 570 nm
[2] = test system: Human serum Albumen (HSA); assay: Protein crosslinking with DiEd6Br: human serum albumen; format: biochemical; settings: 30.0 μM, 791 J/cm^2
[3] = test system: Herpes simplex virus type 1; assay: Effect of DiEd6Br and light on aqueous suspensions of HSV-1 (plaque assay); format: cell-based, MacIntyre strain
[4] = test system: Herpes simplex virus type 1; assay: Effect of DiEd6Br and light on HSV-1 containing 15% fetal calf serum (plaque assay); format: cell-based, MacIntyre strain
[5] = test system: F-actin polymers of G-actin; assay: Protein crosslinking with DiEd6Br: F-actin; format: biochemical; settings: 40.0 μM, 400 J/cm^2

Q: Which results are given for CCCCCCN1C(=O)c2cccc3c(NCCNC(=O)CCCCC(=O)NCCNc4c(Br)cc5c6c(cccc46)C(=O)N(CCCCCC)C5=O)c(Br)cc(c23)C1=O [Compound XLIV]?
A: Optical Density (MTT, MT-4 cells) ([1]; 1.25 μM, 0 J/cm^2): 0.541; Optical Density (MTT, MT-4 cells) ([1]; 1.25 μM, 20 J/cm^2): 1.242; Optical Density (MTT, MT-4 cells) ([1]; 2.5 μM, 0 J/cm^2): 0.290; Optical Density (MTT, MT-4 cells) ([1]; 2.5 μM, 20 J/cm^2): 1.309; Optical Density (MTT, MT-4 cells) ([1]; 5 μM, 0 J/cm^2): 0.559; Optical Density (MTT, MT-4 cells) ([1]; 5 μM, 20 J/cm^2): 1.337; inactivation of HIV ([1]; 1.25 mM or greater (so in the source), light treated): essentially complete inactivation of HIV; heavier bands [2]: many ill separated heavier bands merging together near; Inferred Crosslinked Species ([2]; first species): 2 HSA; Inferred Crosslinked Species ([2]; second species): 3 HSA; Inferred Crosslinked Species ([2]; third species): 3 HSA; Inferred Crosslinked Species, Gel mw ([2]; 2 HSA units): 120 kD; Inferred Crosslinked Species, Gel mw ([2]; 3 HSA units (so in the source), third species): 240 kD; Inferred Crosslinked Species, Gel mw ([2]; 3 HSA units, second species): 180 kD; PFU/ml ([3]; 2.5 μM, not irradiated): 1.3 × 10^6 PFU/ml; PFU/ml ([3]; 10 μM, not irradiated): 1.2 × 10^6 PFU/ml; PFU/ml ([3]; .156 μM, not irradiated): 1.1 × 10^6 PFU/ml; PFU/ml ([3]; .625 μM, not irradiated): 1.0 × 10^6 PFU/ml; log reduction at 2.5 µM ([3]; Human alphaherpesvirus 1, light or radiation study, 2.5 μM, not irradiated, read-out: Log10 Reduction): 0; log reduction at 10 µM ([3]; Human alphaherpesvirus 1, light or radiation study, 10 μM, not irradiated, read-out: Log10 Reduction): 0.0348; log reduction at 0.156 µM ([3]; Human alphaherpesvirus 1, light or radiation study, .156 μM, not irradiated, read-out: Log10 Reduction): 0.0725; log reduction at 0.625 µM ([3]; Human alphaherpesvirus 1, light or radiation study, .625 μM, not irradiated, read-out: Log10 Reduction): 0.114; log reduction at 2.5 µM ([3]; Human alphaherpesvirus 1, light or radiation study, Test #1, 2.5 μM, 20 J/cm2, 420 nm, read-out: Log10 Reduction): 6; log reduction at 10 µM ([3]; Human alphaherpesvirus 1, light or radiation study, Test #1, 10 μM, 20 J/cm2, 420 nm, read-out: Log10 Reduction): 6; log reduction at 0.156 µM ([3]; Human alphaherpesvirus 1, light or radiation study, Test #1, .156 μM, 20 J/cm2, 420 nm, read-out: Log10 Reduction): 6; log reduction at 0.625 µM ([3]; Human alphaherpesvirus 1, light or radiation study, Test #1, .625 μM, 20 J/cm2, 420 nm, read-out: Log10 Reduction): 6; log reduction at 0.0099 µM ([3]; Human alphaherpesvirus 1, light or radiation study, Test #2, .0099 μM, 20 J/cm2, 420 nm, read-out: Log10 Reduction): 3.27; log reduction at 0.0195 µM ([3]; Human alphaherpesvirus 1, light or radiation study, Test #2, .0195 μM, 20 J/cm2, 420 nm, read-out: Log10 Reduction): 4.24; log reduction at 0.039 µM ([3]; Human alphaherpesvirus 1, light or radiation study, Test #2, .039 μM, 20 J/cm2, 420 nm, read-out: Log10 Reduction): 4.87; log reduction at 0.078 µM ([3]; Human alphaherpesvirus 1, light or radiation study, Test #2, .078 μM, 20 J/cm2, 420 nm, read-out: Log10 Reduction): 5.87; log reduction at 0.156 µM ([3]; Human alphaherpesvirus 1, light or radiation study, Test #2, .156 μM, 20 J/cm2, 420 nm, read-out: Log10 Reduction): 5.87; PFU/ml ([3]; Test #1, 2.5 μM, 20 J/cm2, 420 nm): 0 PFU/ml; PFU/ml ([3]; Test #1, 10 μM, 20 J/cm2, 420 nm): 0 PFU/ml; PFU/ml ([3]; Test #1, .156 μM, 20 J/cm2, 420 nm): 0 PFU/ml; PFU/ml ([3]; Test #1, .625 μM, 20 J/cm2, 420 nm): 0 PFU/ml; PFU/ml ([3]; Test #2, .0099 μM, 20 J/cm2, 420 nm): 4.0 × 10^2 PFU/ml; PFU/ml ([3]; Test #2, .0195 μM, 20 J/cm2, 420 nm): 4.3 × 10^1 PFU/ml; PFU/ml ([3]; Test #2, .039 μM, 20 J/cm2, 420 nm): 9.9 × 10^0 PFU/ml; PFU/ml ([3]; Test #2, .078 μM, 20 J/cm2, 420 nm): 0 PFU/ml; PFU/ml ([3]; Test #2, .156 μM, 20 J/cm2, 420 nm): 0 PFU/ml; kill of HSV-1 ([3]; as low as 0.0195 mM, 420 nm, 2.5% or less of serum proteins): > 99.99%; PFU/ml ([4]; 1.25 μM, 15% fetal calf serum, 20 J/cm2, 420 nm): 0 PFU/ml; PFU/ml ([4]; 2.5 μM, 15% fetal calf serum, 20 J/cm2, 420 nm): 0 PFU/ml; PFU/ml ([4]; 5 μM, 15% fetal calf serum, 20 J/cm2, 420 nm): 0 PFU/ml; PFU/ml ([4]; 10 μM, 15% fetal calf serum, 20 J/cm2, 420 nm): 0 PFU/ml; PFU/ml ([4]; .078 μM, 15% fetal calf serum, 20 J/cm2, 420 nm): 4.2 × 10^4 PFU/ml; PFU/ml ([4]; .156 μM, 15% fetal calf serum, 20 J/cm2, 420 nm): 4.5 × 10^3 PFU/ml; PFU/ml ([4]; .312 μM, 15% fetal calf serum, 20 J/cm2, 420 nm): 8.5 × 10^1 PFU/ml; PFU/ml ([4]; .625 μM, 15% fetal calf serum, 20 J/cm2, 420 nm): 6.0 × 10^1 PFU/ml; log reduction at 1.25 µM ([4]; Human alphaherpesvirus 1, light or radiation study, 1.25 μM, 15% fetal calf serum, 20 J/cm2, 420 nm, read-out: Log10 Reduction): ≥ 5; log reduction at 2.5 µM ([4]; Human alphaherpesvirus 1, light or radiation study, 2.5 μM, 15% fetal calf serum, 20 J/cm2, 420 nm, read-out: Log10 Reduction): ≥ 5; log reduction at 5 µM ([4]; Human alphaherpesvirus 1, light or radiation study, 5 μM, 15% fetal calf serum, 20 J/cm2, 420 nm, read-out: Log10 Reduction): ≥ 5; log reduction at 10 µM ([4]; Human alphaherpesvirus 1, light or radiation study, 10 μM, 15% fetal calf serum, 20 J/cm2, 420 nm, read-out: Log10 Reduction): ≥ 5; log reduction at 0.078 µM ([4]; Human alphaherpesvirus 1, light or radiation study, .078 μM, 15% fetal calf serum, 20 J/cm2, 420 nm, read-out: Log10 Reduction): 0.38; log reduction at 0.156 µM ([4]; Human alphaherpesvirus 1, light or radiation study, .156 μM, 15% fetal calf serum, 20 J/cm2, 420 nm, read-out: Log10 Reduction): 1.35; log reduction at 0.312 µM ([4]; Human alphaherpesvirus 1, light or radiation study, .312 μM, 15% fetal calf serum, 20 J/cm2, 420 nm, read-out: Log10 Reduction): 3.1; log reduction at 0.625 µM ([4]; Human alphaherpesvirus 1, light or radiation study, .625 μM, 15% fetal calf serum, 20 J/cm2, 420 nm, read-out: Log10 Reduction): 4; kill of HSV-1 ([4]; as low as 0.156 mM, 420 nm, 20 J/cm^2): > 99.99%; heavier bands [5]: many ill separated heavier bands merging together near; Inferred Crosslinked Species ([5]; first species): 2 G-actin; Inferred Crosslinked Species ([5]; second species): 3 G-actin; Inferred Crosslinked Species, Gel mw ([5]; 2 G-actin monomers): 94 kD; Inferred Crosslinked Species, Gel mw ([5]; 3 G-actin monomers): 141 kD
